Patent EP4603105A1, “PHARMACEUTICAL COMPOSITION CONTAINING CYCLIC COMPOUND HAVING SELECTIVE KRAS INHIBITORY EFFECT AGAINST HRAS AND NRAS” (CHUGAI SEIYAKU KABUSHIKI KAISHA, priority 2022, dated 2024)

Key:
[1] = biological target: GDP-bound NRAS wild-type protein (Homo sapiens, UniProt P01111); assay: Binding to NRAS by surface plasmon resonance (SPR), KD and KD ratio to KRAS; settings: ratio of KD for GDP-bound NRAS wild-type protein to KD for KRAS
How it was run: (§1)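 SPR, 30°C: Avi-biotin RAS·GDP captured via Biotin CAPture (~100–300 RU); running buffer HBS pH 7.4, 1 mM DTT, 10 mM MgCl2, 0.01% Tween 20, 10 µM GDP, 4% DMSO. Single-cycle kinetics, 100 µL/min, 75 s injections; 1:1 model → KD.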

[2] = tested on: human lung cancer strain NCI-H441; assay: NCI-H441 cell proliferation inhibitory activity (CellTiter-Glo, 4 days); type: cell-based; settings: NCI-H441 cells, 4 days, read-out: NCl-H441 IC50
How it was run: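 Proliferation was scored by […] measured after the reagent was added to cultures kept at 37°C in 5% carbon dioxide.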

[3] = biological target: GDP-bound KRAS wild-type protein (Homo sapiens, UniProt P01116); assay: Binding to KRAS by surface plasmon resonance (SPR), dissociation constant KD; settings: 1:1 binding model
Chain of GDP-bound KRAS wild-type protein (P01116 1-188 isoform P01116-2): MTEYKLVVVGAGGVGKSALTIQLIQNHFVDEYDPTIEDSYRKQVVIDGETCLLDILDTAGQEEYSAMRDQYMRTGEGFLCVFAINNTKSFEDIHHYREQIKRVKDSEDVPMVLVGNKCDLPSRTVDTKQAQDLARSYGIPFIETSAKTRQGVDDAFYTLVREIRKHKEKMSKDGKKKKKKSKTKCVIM
How it was run: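 Measured at 30°C: SPR with GDP-loaded, E. coli-expressed biotin-Avi RAS captured (~100–300 RU), ascending 75 s compound injections, HBS pH 7.4 with GDP, MgCl2, 4% DMSO. KD from 1:1 fit.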

[4] = biological target: HRAS wild-type protein (Homo sapiens, UniProt P01112); assay: Binding to HRAS by surface plasmon resonance (SPR), KD and KD ratio to KRAS; settings: ratio of KD for HRAS wild-type protein to KD for KRAS
Chain of HRAS wild-type protein (P01112 whole entry): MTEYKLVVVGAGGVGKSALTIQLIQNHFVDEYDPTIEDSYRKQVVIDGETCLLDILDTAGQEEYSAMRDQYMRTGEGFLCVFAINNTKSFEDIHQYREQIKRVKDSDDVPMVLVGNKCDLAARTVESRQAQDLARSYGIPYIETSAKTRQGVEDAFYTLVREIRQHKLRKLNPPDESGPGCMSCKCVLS
How it was run: as §1

Chain of GDP-bound NRAS wild-type protein (P01111 whole entry): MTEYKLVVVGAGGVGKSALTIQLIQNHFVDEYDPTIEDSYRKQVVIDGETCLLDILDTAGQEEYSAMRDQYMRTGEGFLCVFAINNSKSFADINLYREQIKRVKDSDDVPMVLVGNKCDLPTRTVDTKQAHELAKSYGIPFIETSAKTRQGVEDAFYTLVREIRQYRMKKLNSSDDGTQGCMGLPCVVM

Structure (SMILES) | NRAS /KRAS [1] | IC50 [2] [µM] | Kd [3] [µM] | HRAS /KRAS [4]
CCC[C@H]1C(=O)N[C@@H](CC(C)C)C(=O)N(C2CC2)CC(=O)N(C)[C@H]2C/C=C\CCN(C2=O)[C@@H](Cc2ccc(C)cc2)C(=O)N(C)CC(=O)N[C@@H](CCc2ccc(C(F)(F)F)c(OC)c2)C(=O)N2C[C@H](OCC)C[C@H]2C(=O)NC2(CC(C)(C)C2)C(=O)N(C)[C@@H](C2CCCC2)C(=O)N(C)[C@H](C(=O)N(C)C)CC(=O)N1C [PP2510] | A (a compound having 10 or more and less than 20 is denoted as A) | 0.18 | 0.0039 | B (a compound having 3 or more and less than 10 is denoted as B)
CC[C@H](C)[C@@H]1NC(=O)[C@H](COC)N(C)C(=O)C[C@@H](C(=O)N(C)C)N(C)C(=O)[C@H](C2CCCC2)N(C)C(=O)C2(CC(C)(C)C2)NC(=O)[C@@H]2C[C@@H](OC(C)C)CN2C(=O)[C@H](CCc2cc(F)c(C(F)(F)F)c(F)c2)NC(=O)CN(C)C(=O)[C@H](CC2CCCCC2)N2CC/C=C\C[C@@H](C2=O)N(C)C(=O)CN(C2CC2)C1=O [PP2511] | A (a compound having 10 or more and less than 20 is denoted as A) | 0.107 | 0.00095 | A (a compound having 10 or more and less than 20 is denoted as A)
C#CCN1CC(=O)N(C)[C@H]2C/C=C\CCN(C2=O)[C@@H](Cc2ccc(C)cc2)C(=O)N(C)CC(=O)N[C@@H](CCc2cc(F)c(C(F)(F)F)c(F)c2)C(=O)N2C[C@H](OCC)C[C@H]2C(=O)NC2(CC(C)(C)C2)C(=O)N(C)[C@@H](C2CCCC2)C(=O)N(C)[C@H](C(=O)N(C)C)CC(=O)N(C)[C@@H](CCC)C(=O)N[C@@H](CC(C)C)C1=O [PP2512] | A (a compound having 10 or more and less than 20 is denoted as A) | 0.109 | 0.002 | A (a compound having 10 or more and less than 20 is denoted as A)
CC[C@H](C)[C@@H]1NC(=O)[C@H](COC)N(C)C(=O)C[C@@H](C(=O)N(C)C)N(C)C(=O)[C@H](C2CCCC2)N(C)C(=O)C2(CC(C)(C)C2)NC(=O)[C@@H]2C[C@@H](OC(C)C)CN2C(=O)[C@H](CCc2ccc(Cl)c(Cl)c2)NC(=O)CN(C)C(=O)[C@H](CC2CCCCC2)N2CC/C=C\C[C@@H](C2=O)N(C)C(=O)CN(C2CC2)C1=O [PP2513] | A (a compound having 10 or more and less than 20 is denoted as A) | 0.303 | 0.0026 | A (a compound having 10 or more and less than 20 is denoted as A)
C#CCN1CC(=O)N(C)[C@H]2C/C=C\CCN(C2=O)[C@@H](Cc2ccc(C)cc2)C(=O)N(C)CC(=O)N[C@@H](CCc2ccc(C(F)(F)F)c(OC)c2)C(=O)N2C[C@H](OCC)C[C@H]2C(=O)NC2(CC(C)(C)C2)C(=O)N(C)[C@@H](C2CCCC2)C(=O)N(C)[C@H](C(=O)N(C)C)CC(=O)N(C)[C@@H](CCC)C(=O)N[C@@H](CC(C)C)C1=O [PP2514] | A (a compound having 10 or more and less than 20 is denoted as A) | 0.0868 | 0.0024 | B (a compound having 3 or more and less than 10 is denoted as B)
CCC(CC)[C@H]1C(=O)N(C)[C@H](C(=O)N(C)C)CC(=O)N(C)[C@@H](COC)C(=O)N[C@@H]([C@@H](C)CC)C(=O)N(C2CC2)CC(=O)N(C)[C@H]2C/C=C\CCN(C2=O)[C@@H](CC2CCCCC2)C(=O)N(C)CC(=O)N[C@@H](CCc2cc(F)c(C(F)(F)F)c(F)c2)C(=O)N2C[C@H](OC(C)C)C[C@H]2C(=O)NC2(CC(C)(C)C2)C(=O)N1C [PP2515] | A (a compound having 10 or more and less than 20 is denoted as A) | 0.384 | 0.0051 | A (a compound having 10 or more and less than 20 is denoted as A)
CCC[C@H]1C(=O)N[C@@H](CC(C)C)C(=O)N(CC)CC(=O)N(C)[C@H]2C/C=C\CCN(C2=O)[C@@H](Cc2ccc(C)cc2)C(=O)N(C)CC(=O)N[C@@H](CCc2cc(F)c(C(F)(F)F)c(F)c2)C(=O)N2C[C@H](OCC)C[C@H]2C(=O)NC2(CC(C)(C)C2)C(=O)N(C)[C@@H](C2CCCC2)C(=O)N(C)[C@H](C(=O)N(C)C)CC(=O)N1C [PP2516] | A (a compound having 10 or more and less than 20 is denoted as A) | 0.124 | 0.0029 | B (a compound having 3 or more and less than 10 is denoted as B)
CCC[C@H]1C(=O)N[C@@H](CC(C)C)C(=O)N(CCOC)CC(=O)N(C)[C@H]2C/C=C\CCN(C2=O)[C@@H](Cc2ccc(C)cc2)C(=O)N(C)CC(=O)N[C@@H](CCc2cc(F)c(C(F)(F)F)c(F)c2)C(=O)N2C[C@H](OCC)C[C@H]2C(=O)NC2(CC(C)(C)C2)C(=O)N(C)[C@@H](C2CCCC2)C(=O)N(C)[C@H](C(=O)N(C)C)CC(=O)N1C [PP2520] | A (a compound having 10 or more and less than 20 is denoted as A) | 0.21 | 0.0033 | A (a compound having 10 or more and less than 20 is denoted as A)
CCC[C@H]1C(=O)N[C@@H]([C@@H](C)CC)C(=O)N(C2CC2)CC(=O)N(C)[C@H]2C/C=C\CCN(C2=O)[C@@H](CC2CCC(F)(F)CC2)C(=O)N(C)CC(=O)N[C@@H](CCc2ccc(Cl)c(Cl)c2)C(=O)N2C[C@H](OC(C)C)C[C@H]2C(=O)NC2(CC(C)(C)C2)C(=O)N(C)[C@@H](C2CCCC2)C(=O)N(C)[C@H](C(=O)N(C)C)CC(=O)N1C [PP2521] | A (a compound having 10 or more and less than 20 is denoted as A) | 0.129 | 0.0028 | A (a compound having 10 or more and less than 20 is denoted as A)
CCC(CC)[C@H]1C(=O)N(C)[C@H](C(=O)N(C)C)CC(=O)N(C)[C@@H](COC)C(=O)N[C@@H]([C@@H](C)CC)C(=O)N(C2CC2)CC(=O)N(C)[C@H]2C/C=C\CCN(C2=O)[C@@H](CC2CCC(F)(F)CC2)C(=O)N(C)CC(=O)N[C@@H](CCc2ccc(Cl)c(Cl)c2)C(=O)N2C[C@H](OC(C)C)C[C@H]2C(=O)NC2(CC(C)(C)C2)C(=O)N1C [PP2525] | AA (a compound having 20 or more is denoted as AA) | 0.142 | 0.0038 | A (a compound having 10 or more and less than 20 is denoted as A)
C#CCN1CC(=O)N(C)[C@H]2C/C=C\CCN(C2=O)[C@@H](Cc2ccc(C)cc2)C(=O)N(C)CC(=O)N[C@@H](CCc2ccc(C(F)(F)F)c(Cl)c2)C(=O)N2C[C@H](OCC)C[C@H]2C(=O)NC2(CC(C)(C)C2)C(=O)N(C)[C@@H](C2CCCC2)C(=O)N(C)[C@H](C(=O)N(C)C)CC(=O)N(C)[C@@H](CCC)C(=O)N[C@@H](CC(C)C)C1=O [PP2526] | A (a compound having 10 or more and less than 20 is denoted as A) | 0.0545 | 0.004 | B (a compound having 3 or more and less than 10 is denoted as B)
CCC[C@H]1C(=O)N[C@@H]([C@@H](C)CC)C(=O)N(C2CC2)CC(=O)N(C)[C@H]2C/C=C\CCN(C2=O)[C@@H](Cc2ccc(C(F)F)cc2)C(=O)N(C)CC(=O)N[C@@H](CCc2cc(F)c(C(F)(F)F)c(F)c2)C(=O)N2C[C@H](OCC)C[C@H]2C(=O)NC2(CC(C)(C)C2)C(=O)N(C)[C@@H](C(CC)CC)C(=O)N(C)[C@H](C(=O)N(C)C)CC(=O)N1C [PP2527] | AA (a compound having 20 or more is denoted as AA) | 0.031 | 0.00065 | A (a compound having 10 or more and less than 20 is denoted as A)
